Test results: ChEMBL document CHEMBL3832033, “DailyMed|setid=f21494ed-c5e8-4ddf-b140-ecd68c5c312b | CLARITHROMYCIN EXTENDED RELEASE - clarithromycin tablet, film coated, extended release|Ranbaxy Pharmaceuticals Inc”
“And” between values parts separate entries of the source, which are not always exact repeats. Equal values may be shown once.

How the values were obtained:
[1] = (§1) Pharmacokinetic parameters for Clarithromycin evaluated after single oral administration of 1000 or 2 x 500 mg Clarithromycin extended-release tablets to 34 adult volunteers under fasting and feeding conditions.; type: ADME, organism-based; parameters: dose 1000 mg, dose 2 x 500, route oral; settings: human, in vivo, dosed compound id 21, dosed compound name CLARITHROMYCIN, gender male and female, regimen Single dose, tissue Plasma
[2] = system: Homo sapiens; assay: as §1; type: ADME, organism-based; parameters: dose 1000 mg, dose 2 x 500, route oral; settings: in vivo, po, dosed compound id 21, dosed compound name CLARITHROMYCIN, gender male and female, regimen Single dose, tissue Plasma

Molecule `CC[C@H]1OC(=O)[C@H](C)[C@@H](O[C@H]2C[C@@](C)(OC)[C@@H](O)[C@H](C)O2)[C@H](C)[C@@H](O[C@@H]2O[C@H](C)C[C@H](N(C)C)[C@H]2O)[C@](C)(OC)C[C@@H](C)C(=O)[C@H](C)[C@@H](O)[C@]1(C)O` [CLARITHROMYCIN] has an AUC ([1]; po, 1000 mg, dietary status Fasting, read-out: AUC(0-t)) of 36600 ng·h/mL, a Cmax ([1]; po, 1000 mg, dietary status Fed) of 3960 ng/mL and a Tmax ([1]; dietary status Fasting, dose 1000 mg, route oral) of 11 h. The Tmax ([2]; dietary status Fasting, dose 2 x 500 mg) was 9.588 h, the “AUC(0-t)” value ([2]; dietary status Fasting) was 37615.9151 ng·h/mL and the Tmax ([2]; dietary status Fed, dose 1000 mg) was 6.118 h. For the same molecule, the Tmax ([2]; dietary status Fed, dose 2 x 500 mg) was 6.235 h, the “AUC(0-t)” value ([2]; dietary status Fed) was 58485.5053 ng·h/mL and 60796.1185 ng·h/mL and the Cmax ([2]; dietary status Fed) was 3478.3286 ng/mL.
